Results: paper PMC11239830, “Synthetic macrolides overcoming MLSBK-resistant pathogens” (Cell Discovery, 2024)
In brackets after ≈: the same amount, converted by molar mass. Where two headings read alike, the source gives them in different places.

Key:
S. pneumoniae = test: MIC, broth microdilution; type: cell-based, Streptococcus pneumoniae
Procedure, shortened: (§1)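 Read-out is the lowest concentration without observed growth after 16–20 h at 37 °C, using the CLSI broth microdilution method.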

[1] = CCK-8 assay for cytotoxicity; type: cell-based, human; details: human, HEK293T cells, HEK293T cell viability
Method: HepG2 cells (6 × 10^3) and HEK293T cells (4 × 10^3) were seeded into 96-well plates in 90 μL of DMEM medium containing 10% FBS per well. […] After overnight incubation, the test compound stock solution was diluted with DMEM medium containing 10% FBS to every target concentration, and 10 μL of each was added to each well. Three parallel experiments were set up for each compound. After incubation for 48 h, 10 μL of cell counting kit-8 (CCK-8) reagent was added to each well in sequence according to the manufacturer’s instructions. […] This experiment was independently repeated three times. The data were processed by GraphPad Prism.

M. catarrhalis = test: MIC, broth microdilution; type: cell-based, Moraxella catarrhalis; details: Moraxella catarrhalis; M. catarrhalis 13L332, Ery-S; read-out: MIC
Method: MICs were determined by the microdilution method according to the Clinical and Laboratory Standards Institute guidelines. Briefly, the stock solution of compounds and the reference antibiotics were diluted 2-fold in sterile 96-well plates with cation-adjusted Mueller-Hinton broth, and mixed with CAMHB-containing bacteria to give a final inoculum of 5 × 10^5 CFU/mL for broth microdilution experiments. […] Finally, the 96-well plates were incubated at 37 °C for 16–20 h to observe and record the results. The lowest concentration at which no bacterial growth could be observed visually was identified as the MICs of the compounds. The assay for MICs was replicated at least three times.

S. pyogenes = test: MIC, broth microdilution; type: cell-based, Streptococcus pyogenes
Procedure, shortened: as §1

S. aureus = test: MIC, broth microdilution; type: cell-based, Staphylococcus aureus
Procedure, shortened: as §1

WT S. aureus ribosomes = test: PURE in vitro translation inhibition assay; type: biochemical, Staphylococcus aureus; details: mean ± SD
Method: (§2) To validate the in vitro activity of our compounds, we employed an in vitro reconstituted E. coli Protein synthesis Using a Recombinant Elements (PURE) translation system, substituting E. coli ribosomes with the purified S. aureus ribosomes.
(§3) 5 μL of PURE reaction mix that translates a gene encoding the Nanoluc luciferase was set up in the presence or absence of tested compounds. Protein synthesis was initiated by incubating reactions at 37 °C for 60 min and stopped by placing on ice for 5 min. Luciferase activity was quantified using the Nano-Glo luciferase assay system and read on a GloMax 20/20 luminometer (Promega, USA). For each compound, the in vitro translation inhibition assay was performed in three biological triplicates over a range of concentrations from 0.001 μM to 1000 μM. A compound-free control was used to normalize luminescence measurements. The calculated luminescence percentages were plotted against compound concentrations on a semilog scale using GraphPad Prism.

[2] = tested on: 15B196 S. aureus ribosomes (A2058-methylated); test: PURE in vitro translation inhibition assay; type: biochemical, Staphylococcus aureus; details: mean ± SD
Method: as §2, §3

[3] = Staphylococcus aureus, All S. aureus (24)
[4] = Staphylococcus aureus, i-MLSB S. aureus (10)

CC[C@H]1OC(=O)[C@H](C)C(=O)[C@H](C)[C@@H](O[C@@H]2O[C@H](C)C[C@H](N(C)C)[C@H]2O)[C@](C)(OC)C[C@@H](C)C(=O)[C@H](C)[C@H]2N(CCCCn3cnc(-c4cccnc4)c3)C(=O)O[C@]12C [telithromycin, reference compound] showed an MIC (S. pneumoniae; S. pneumoniae 21C315, Clinical, c-ermB) of 0.12 µg/mL (≈ 0.148 µM), an MIC (S. pneumoniae; S. pneumoniae 21D016, Clinical, c-ermB, mef) of 0.25 µg/mL (≈ 0.308 µM) and an MIC (S. pneumoniae; S. pneumoniae 21D020, Clinical, c-ermB, mef) of 0.25 µg/mL (≈ 0.308 µM). For the same molecule, the MIC (S. pneumoniae; S. pneumoniae 21M277, Clinical, c-ermB) was 0.12 µg/mL (≈ 0.148 µM), the MIC (S. pneumoniae; S. pneumoniae 21Q352, Clinical, i-MLSB) was 0.06 µg/mL (≈ 0.0739 µM) and the MIC (S. pneumoniae; S. pneumoniae 21Q353, Clinical, i-MLSB) was 0.03 µg/mL (≈ 0.0369 µM). It also gave an MIC (S. pneumoniae; S. pneumoniae 21W257, Clinical, c-ermB, mef) of 0.12 µg/mL (≈ 0.148 µM), an MIC (S. pneumoniae; S. pneumoniae 21X435, Clinical) of 0.016 µg/mL (≈ 0.0197 µM) and an MIC (S. pneumoniae; S. pneumoniae ATCC49619) of 0.008 µg/mL (≈ 0.00985 µM). The MIC (S. pneumoniae; S. pneumoniae PU09, mef) was 1 µg/mL (≈ 1.23 µM), the MIC (S. pneumoniae; Streptococcus pneumoniae, S. pneumoniae 05O173, c-ermB, mef, read-out: MIC) was 4 µg/mL (≈ 4.93 µM) and the MIC (S. pneumoniae; Streptococcus pneumoniae, S. pneumoniae PU09, mef, read-out: MIC) was 0.5 µg/mL (≈ 0.616 µM). It also gave a CC50 at 48 h [1] greater than 100 µM, an MIC (M. catarrhalis) of 0.25 µg/mL (≈ 0.308 µM) and an MIC (S. pyogenes; S. pyogenes 01-968, Clinical, i-ermB) of 0.016 µg/mL (≈ 0.0197 µM). It also gave an MIC (S. pyogenes; S. pyogenes 12-207, Clinical, mef) of 0.5 µg/mL (≈ 0.616 µM), an MIC (S. pyogenes; S. pyogenes 21C303, Clinical, c-ermB) of 16 µg/mL (≈ 19.7 µM) and an MIC (S. pyogenes; S. pyogenes 21D184, Clinical, c-ermB) of 8 µg/mL (≈ 9.85 µM). For the same molecule, the MIC (S. pyogenes; S. pyogenes 21D199, Clinical, c-ermB) was 8 µg/mL (≈ 9.85 µM), the MIC (S. pyogenes; S. pyogenes 21D200, Clinical, c-ermB) was 16 µg/mL (≈ 19.7 µM) and the MIC (S. pyogenes; S. pyogenes 21K003, Clinical, mef) was 1 µg/mL (≈ 1.23 µM). The MIC (S. pyogenes; S. pyogenes 21M063, Clinical, c-ermB) was 16 µg/mL (≈ 19.7 µM), the MIC (S. pyogenes; S. pyogenes 21W186, Clinical, c-ermTR) was 8 µg/mL (≈ 9.85 µM) and the MIC (S. aureus; S. aureus 15B196, Clinical, MRSA, c-ermB) was 128 µg/mL (≈ 158 µM). It also gave an MIC (S. aureus; S. aureus 15B196, c-ermB) of 32 µg/mL (≈ 39.4 µM), an MIC (S. aureus; S. aureus 21B200, Clinical, MRSA, c-ermB) greater than 256 µg/mL and an MIC (S. aureus; S. aureus 21B207, Clinical, MRSA, c-ermB) greater than 256 µg/mL. The MIC (S. aureus; S. aureus 21B212, Clinical, MSSA, i-ermC) was 0.25 µg/mL (≈ 0.308 µM), the MIC (S. aureus; S. aureus 21C173, Clinical, MSSA, i-ermC) was 0.25 µg/mL (≈ 0.308 µM) and the MIC (S. aureus; S. aureus 21C174, Clinical, MSSA, c-ermB) was greater than 256 µg/mL. It also gave an MIC (S. aureus; S. aureus 21C187, Clinical, MRSA, i-ermA) of 0.12 µg/mL (≈ 0.148 µM), an MIC (S. aureus; S. aureus 21D112, Clinical, MSSA, c-ermB) greater than 256 µg/mL and an MIC (S. aureus; S. aureus 21D115, Clinical, MSSA, i-ermC) of 0.12 µg/mL (≈ 0.148 µM). It also gave an MIC (S. aureus; S. aureus 21F198, Clinical, MRSA, c-ermB) greater than 256 µg/mL, an MIC (S. aureus; S. aureus 21F206, Clinical, MSSA, c-ermB) greater than 256 µg/mL and an MIC (S. aureus; S. aureus 21F207, Clinical, MRSA, i-ermC) of 0.25 µg/mL (≈ 0.308 µM). It also gave an MIC (S. aureus; S. aureus 21K194, Clinical, MSSA, i-ermC) of 0.25 µg/mL (≈ 0.308 µM), an MIC (S. aureus; S. aureus 21N354, Clinical, MRSA, c-ermB) of 128 µg/mL (≈ 158 µM) and an MIC (S. aureus; S. aureus 21P191, Clinical, MSSA, c-ermC) greater than 256 µg/mL. The MIC (S. aureus; S. aureus 21P404, Clinical, MSSA, i-ermC) was 0.5 µg/mL (≈ 0.616 µM), the MIC (S. aureus; S. aureus 21P407, Clinical, MRSA, c-ermB) was greater than 256 µg/mL and the MIC (S. aureus; S. aureus 21Q253, Clinical, MRSA, c-ermB) was 16 µg/mL (≈ 19.7 µM). The MIC (S. aureus; S. aureus 21R216, Clinical, MSSA, c-ermC) was greater than 256 µg/mL, the MIC (S. aureus; S. aureus 21T141, Clinical, MRSA, c-ermB) was greater than 256 µg/mL and the MIC (S. aureus; S. aureus 21X388, Clinical, i-ermA (MRSA in Table S9, MSSA in Fig. 2a)) was 0.25 µg/mL (≈ 0.308 µM). The MIC (S. aureus; S. aureus 21Y223, Clinical, MRSA, i-ermC) was 0.25 µg/mL (≈ 0.308 µM), the MIC (S. aureus; S. aureus ATCC29213) was 0.25 µg/mL (≈ 0.308 µM) and the MIC (S. aureus; S. aureus PU32, Clinical, MRSA, i-ermA) was 0.12 µg/mL (≈ 0.148 µM). The MIC50 (S. aureus; [3]) was 16 µg/mL (≈ 19.7 µM), the MIC90 (S. aureus; [3]) was greater than 256 µg/mL and the MIC50 (S. aureus; Staphylococcus aureus, MRSA, MRSA (13)) was 128 µg/mL (≈ 158 µM). The MIC50 (S. aureus; Staphylococcus aureus, MSSA, MSSA (10)) was 0.5 µg/mL (≈ 0.616 µM), the MIC (S. aureus; Staphylococcus aureus, S. aureus 15B196, c-ermB, read-out: MIC) was 64 µg/mL (≈ 78.8 µM) and the MIC50 (S. aureus; Staphylococcus aureus, c-MLSB (constitutive) S. aureus (13)) was greater than 256 µg/mL. The MIC50 (S. aureus; [4]) was 0.25 µg/mL (≈ 0.308 µM), the MIC90 (S. aureus; [4]) was 0.25 µg/mL (≈ 0.308 µM) and the MIC90 (S. aureus; Staphylococcus aureus, MRSA (13)) was greater than 256 µg/mL. It also gave an MIC90 (S. aureus; Staphylococcus aureus, MSSA (10)) greater than 256 µg/mL, an IC50 (WT S. aureus ribosomes) of 0.38 ± 0.13 µM and an IC50 [2] greater than 10 µM.
